The record followed here is ChEMBL document CHEMBL3856224, “Novel series of tacrine-tianeptine hybrids: Synthesis, cholinesterase inhibitory activity, S100B secretion and a molecular modeling approach” (Eur J Med Chem, 2016).

Each structure is given as a SMILES string. Active and inactive are the calls of the source. The calls are words filed in the database; no cut-off is given here.

For one series, the target named is Cholinesterase (Homo sapiens, UniProt P06276).
The next series relates to Hippocampus. In words: Reduction of S100B secretion in Wistar rat hippocampus at 0.03 to 0.3 uM after 1 hr by ELISA. It counts as functional. A general note: ELISA stands for enzyme-linked immunosorbent assay.
The next series has as its target T1, Acetylcholinesterase (Rattus norvegicus, UniProt P37136).
T1 sequence (P37136 whole entry): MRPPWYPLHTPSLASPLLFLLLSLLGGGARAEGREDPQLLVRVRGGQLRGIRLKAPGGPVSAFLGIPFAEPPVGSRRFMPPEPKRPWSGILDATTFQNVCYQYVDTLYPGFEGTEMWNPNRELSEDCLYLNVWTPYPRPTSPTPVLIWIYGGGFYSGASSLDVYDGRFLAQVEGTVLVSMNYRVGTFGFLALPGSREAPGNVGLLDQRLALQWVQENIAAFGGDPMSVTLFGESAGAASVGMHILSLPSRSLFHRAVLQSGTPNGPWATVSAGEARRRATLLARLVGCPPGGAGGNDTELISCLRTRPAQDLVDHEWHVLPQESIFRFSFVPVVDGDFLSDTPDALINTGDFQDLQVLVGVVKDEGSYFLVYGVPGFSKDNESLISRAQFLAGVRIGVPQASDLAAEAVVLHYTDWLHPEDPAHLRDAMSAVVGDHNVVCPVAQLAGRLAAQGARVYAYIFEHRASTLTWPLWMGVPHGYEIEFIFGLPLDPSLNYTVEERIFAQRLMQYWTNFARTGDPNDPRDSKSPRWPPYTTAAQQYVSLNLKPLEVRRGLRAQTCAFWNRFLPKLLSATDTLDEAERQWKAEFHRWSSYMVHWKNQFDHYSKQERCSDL
Also on record: species or system Wistar.

Series [1] is filed under the species Rattus norvegicus. Put plainly: Toxicity in Wistar rat hippocampus assessed as LDH release at 0.03 uM relative to control. It counts as organism-based. The settings on record: in vivo. A general note: LDH in the medium is a marker of cell lysis.
The species entered for series [2] is Rattus norvegicus. In words: Toxicity in Wistar rat hippocampus assessed as LDH release at 0.1 uM relative to control. The settings on record: in vivo. It is filed as organism-based.
Series [3] is filed under the species Rattus norvegicus. In words: Toxicity in Wistar rat hippocampus assessed as LDH release at 0.3 uM relative to control. The note with it: in vivo. It is filed as organism-based.

Usually IC50 stands for the concentration at which inhibition is half-maximal. High values mean a need for much substance, low ones inhibition by little substance.

Chain of Cholinesterase (P06276 whole entry): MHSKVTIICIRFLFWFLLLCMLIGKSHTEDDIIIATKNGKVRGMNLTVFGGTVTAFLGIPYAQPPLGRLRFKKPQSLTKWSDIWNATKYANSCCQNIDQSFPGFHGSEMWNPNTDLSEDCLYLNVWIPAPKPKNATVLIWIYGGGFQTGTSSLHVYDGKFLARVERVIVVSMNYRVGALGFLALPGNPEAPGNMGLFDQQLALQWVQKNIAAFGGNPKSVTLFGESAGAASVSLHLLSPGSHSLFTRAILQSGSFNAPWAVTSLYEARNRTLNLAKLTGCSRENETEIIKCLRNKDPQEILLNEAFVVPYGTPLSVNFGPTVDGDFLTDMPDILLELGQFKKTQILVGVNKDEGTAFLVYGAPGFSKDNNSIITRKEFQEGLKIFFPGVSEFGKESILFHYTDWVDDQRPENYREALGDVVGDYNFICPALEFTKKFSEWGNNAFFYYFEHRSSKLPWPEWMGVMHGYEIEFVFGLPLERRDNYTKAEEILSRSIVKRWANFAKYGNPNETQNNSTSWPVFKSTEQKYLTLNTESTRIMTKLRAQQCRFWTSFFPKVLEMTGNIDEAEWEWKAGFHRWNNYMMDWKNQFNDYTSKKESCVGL
Description for Acetylcholinesterase: Inhibition of Wistar rat brain AChE using acetylthiochloline iodide as substrate after 30 mins by Ellman's method

For the compound `CN1c2ccccc2C(NCCCCCCC(=O)NCCCCNc2c3c(nc4ccccc24)CCCC3)c2ccc(Cl)cc2S1(=O)=O` (stereo unspecified), the half-maximal inhibitory concentration (IC50) against Cholinesterase came to 3.59 nM; at Acetylcholinesterase it was 156 nM. Further, the outcome in the series with Hippocampus was Active. The values for the Activity in the series listed under Rattus norvegicus [1] and in the series listed under Rattus norvegicus [2] were 72.7% and 74.9%, respectively.
With `CN1c2ccccc2C(NCCCCCCC(=O)NCCNc2c3c(nc4cc(Cl)ccc24)CCCC3)c2ccc(Cl)cc2S1(=O)=O` (stereo unspecified), the IC50 worked out at 47.3 nM at Cholinesterase and 8.01 nM on Acetylcholinesterase.
`CN1c2ccccc2C(NCCCCCCC(=O)NCCCNc2c3c(nc4cc(Cl)ccc24)CCCC3)c2ccc(Cl)cc2S1(=O)=O` (stereo unspecified): the IC50 was determined as 52.4 nM on Cholinesterase and 6.79 nM against Acetylcholinesterase.
Compound `c1ccc2c(NCCCCCCCNc3c4c(nc5ccccc35)CCCC4)c3c(nc2c1)CCCC3` displayed an IC50 against Cholinesterase of 38.3 nM.
With `CN1c2ccccc2C(NCCCCCCC(=O)NCCCCCCNc2c3c(nc4cc(Cl)ccc24)CCCC3)c2ccc(Cl)cc2S1(=O)=O` (stereo unspecified), the IC50 came to 32.1 nM against Cholinesterase and 39.1 nM against Acetylcholinesterase.
For `CN1c2ccccc2C(NCCCCCCC(=O)O)c2ccc(Cl)cc2S1(=O)=O` (stereo unspecified) [TIANEPTINE], the results for the Activity in the series filed under Rattus norvegicus [2] and in the series filed under Rattus norvegicus [3] were 109.7% and 110.8%, respectively.
As for `CN1c2ccccc2C(NCCCCCCC(=O)NCCCCCNc2c3c(nc4ccccc24)CCCC3)c2ccc(Cl)cc2S1(=O)=O` (stereo unspecified), the IC50 against Cholinesterase is 6.97 nM; at Acetylcholinesterase it was 108 nM. Moreover, in the series with Hippocampus, the outcome was Active. Also, the Activity in the series listed under Rattus norvegicus [1] amounted to 67.4%.
As for `CN1c2ccccc2C(NCCCCCCC(=O)NCCCCNc2c3c(nc4cc(Cl)ccc24)CCCC3)c2ccc(Cl)cc2S1(=O)=O` (stereo unspecified), the IC50 was found to be 48.1 nM on Cholinesterase and 36.5 nM on Acetylcholinesterase.
As to `CN1c2ccccc2C(NCCCCCCC(=O)NCCNc2c3c(nc4ccccc24)CCCC3)c2ccc(Cl)cc2S1(=O)=O` (stereo unspecified), the IC50 against Cholinesterase was determined as 22.6 nM; against Acetylcholinesterase, 82.2 nM.
With `CN1c2ccccc2C(NCCCCCCC(=O)NCCCCCNc2c3c(nc4cc(Cl)ccc24)CCCC3)c2ccc(Cl)cc2S1(=O)=O` (stereo unspecified), the IC50 was 30.4 nM against Cholinesterase and 28.3 nM against Acetylcholinesterase.
With `CN1c2ccccc2C(NCCCCCCC(=O)NCCCCCCNc2c3c(nc4ccccc24)CCCC3)c2ccc(Cl)cc2S1(=O)=O` (stereo unspecified), the IC50 worked out at 3.79 nM against Cholinesterase and 116 nM against Acetylcholinesterase.
As to `CN1c2ccccc2C(NCCCCCCC(=O)NCCCCCCCNc2c3c(nc4ccccc24)CCCC3)c2ccc(Cl)cc2S1(=O)=O` (stereo unspecified), the IC50 against Cholinesterase was determined as 6.4 nM; on Acetylcholinesterase it was 65 nM.
Turning to `CN1c2ccccc2C(NCCCCCCC(=O)NCCCCCCCNc2c3c(nc4cc(Cl)ccc24)CCCC3)c2ccc(Cl)cc2S1(=O)=O` (stereo unspecified), the IC50 against Cholinesterase stood at 53.8 nM; on Acetylcholinesterase, 132 nM.
The corresponding values for `CN1c2ccccc2C(NCCCCCCC(=O)NCCCCCCCCNc2c3c(nc4ccccc24)CCCC3)c2ccc(Cl)cc2S1(=O)=O` (stereo unspecified) are 4.12 nM and 87.5 nM.
As for `CN1c2ccccc2C(NCCCCCCC(=O)NCCCCCCCCNc2c3c(nc4cc(Cl)ccc24)CCCC3)c2ccc(Cl)cc2S1(=O)=O` (stereo unspecified), the results for the IC50 against Cholinesterase and against Acetylcholinesterase were 456 nM and 452 nM, respectively.
Consider `CN1c2ccccc2C(NCCCCCCC(=O)NCCCNc2c3c(nc4ccccc24)CCCC3)c2ccc(Cl)cc2S1(=O)=O` (stereo unspecified), for which the IC50 on Cholinesterase turned out to be 11.6 nM; against Acetylcholinesterase, 52.2 nM.
